Assays:
[1] = refractive index (Na D-line) (dimensionless); conditions: 101.33 kPa, Liquid, Standard Abbe refractometry
[2] = 101.33 kPa, Liquid; for viscosity: Capillary tube (Ostwald / Ubbelohde) method; for speed of sound: Sing-around technique in a fixed-path interferometer; for mass density: Vibrating tube method

CCCCCC[n+]1cc(C)cc(C)c1CCCCC.O=S(=O)([N-]S(=O)(=O)C(F)(F)F)C(F)(F)F
Conditions	mass density, [2] [kg/m3]	refractive index, [1]	speed of sound, [2] [m/s]	viscosity, [2] [mPa·s]
298.15 K	1253.47	1.46074	1291	278
303.15 K	1249.29	1.4591	1277	204
308.15 K	1245.09	1.45746	1264	151
313.15 K	1240.9	1.45583	1251	115
318.15 K	1236.71	1.45417	1238	88.5
323.15 K	1232.53	1.45255	1225	69.6
328.15 K	1228.37	1.45093	1213	55.7
333.15 K	1224.22	1.4493	1201	45.2
338.15 K	1220.07	1.44769	1188	37.1
343.15 K	1215.94	1.44607	1176	30.9

CCCCCc1c(C)cc(C)c[n+]1CCCC.O=S(=O)([N-]S(=O)(=O)C(F)(F)F)C(F)(F)F
Conditions	mass density, [2] [kg/m3]	refractive index, [1]	speed of sound, [2] [m/s]	viscosity, [2] [mPa·s]
298.15 K	1288.23	1.4604	1293	253
303.15 K	1283.93	1.45878	1279	186
308.15 K	1279.63	1.45714	1266	138
313.15 K	1275.33	1.45549	1253	105
318.15 K	1271.04	1.45386	1240	80.8
323.15 K	1266.77	1.45226	1228	63.7
328.15 K	1262.51	1.45065	1215	51
333.15 K	1258.26	1.44902	1203	41.5
338.15 K	1254.01	1.44744	1191	34.2
343.15 K	1249.77	1.44588	1179	28.6

CCCCCc1c(C)cc(C)c[n+]1CC.O=S(=O)([N-]S(=O)(=O)C(F)(F)F)C(F)(F)F
Conditions	mass density, [2] [kg/m3]	refractive index, [1]	speed of sound, [2] [m/s]	viscosity, [2] [mPa·s]
298.15 K	1323.9	1.46108	1309	260
303.15 K	1319.56	1.45947	1296	187
308.15 K	1315.21	1.45787	1283	138
313.15 K	1310.86	1.45627	1270	104
318.15 K	1306.53	1.45463	1258	79.9
323.15 K	1302.2	1.45304	1245	62.8
328.15 K	1297.9	1.45139	1233	50.1
333.15 K	1293.6	1.44979	1221	40.7
338.15 K	1289.3	1.44822	1209	33.5
343.15 K	1285.03	1.44667	1198	28

CCCCCC[n+]1cc(C)cc(C)c1C.O=S(=O)([N-]S(=O)(=O)C(F)(F)F)C(F)(F)F
Conditions	mass density, [2] [kg/m3]	refractive index, [1]	speed of sound, [2] [m/s]	viscosity, [2] [mPa·s]
298.15 K	1336.18	1.46466	1288	174
303.15 K	1331.83	1.46311	1276	129
308.15 K	1327.48	1.4615	1264	98.2
313.15 K	1323.15	1.4599	1252	76.2
318.15 K	1318.83	1.45826	1240	60.2
323.15 K	1314.52	1.45671	1229	48.3
328.15 K	1310.23	1.45514	1218	39.3
333.15 K	1305.85	1.45357	1206	32.4
338.15 K	1301.66	1.452	1195	27.1
343.15 K	1297.4	1.45044	1184	23
